Assay results: ChEMBL document CHEMBL3044993, “Structural confirmation of 15-norlubiminol and 15-norepilubiminol, isolated from Solanum aethiopicum, by chemical conversion from lubimin and epilubimin, and their antifungal activity” (2001)

Tests used:
Verticillium dahliae = assay: Antifungal activity against Verticillium dahliae assessed as spore germination rate at 100 ppm relative to untreated control; format: functional
[1] = tested on: Fusarium oxysporum f. sp. melongenae; assay: Antifungal activity against Fusarium oxysporum f. sp. melongenae assessed as spore germination rate at 100 ppm relative to untreated control; format: functional

Compound	Activity (Verticillium dahliae)	Activity [1]
C=C(C)[C@@H]1CC[C@]2(C1)[C@H](C)C[C@H](O)C[C@H]2C=O [EPILUBIMIN]	54%	30%
C=C(C)[C@@H]1CC[C@]2(C1)[C@H](C)C[C@H](O)C[C@@H]2O [15-NORLIBIMINOL]	52%	114%
C=C(C)[C@@H]1CC[C@]2(C1)[C@H](C)C[C@H](O)C[C@H]2O [15-NOREPILUBIMINOL]	57%	113%
C=C(C)[C@@H]1CC[C@]2(C1)[C@H](C)C[C@H](O)C[C@@H]2C=O [LUBIMIN]	42%	5%
